Patent EP3628044B1, “PYRROLO[2,3-C]PYRIDINES AND RELATED ANALOGS AS LSD-1 INHIBITORS” (The Regents of The University of Michigan, priority 2017, dated 2018)

Biological target: T1, Human recombinant LSD1 protein (Homo sapiens, UniProt O60341)
T1 construct: purchased Active Motif (Carlsbad, CA); host or cells: E. coli
Experiment: LSD1 enzymatic activity assay (AlphaLISA, Biotin-H3K4Me peptide substrate)
Assay type: biochemical
Conditions: 4 nM LSD1, 80 nM Biotin-H3K4Me peptide substrate, 1% DMSO, compounds tested as the TFA salt
Method: Human recombinant LSD1 protein expressed in E. coli cells was purchased from Active Motif (Carlsbad, CA). Biotin-labeled Histone H3K4Me peptide (residues 1-21 with Lys 4 monomethylated) substrate was purchased from Anaspec (Fremont, CA). Enzymatic activity was assessed using the AlphaLISA technology from Perkin Elmer Life Sciences (Waltham, MA). 2.5 µL of compound solution and 5 µL of LSD1 solutions in the assay buffer (50mM Tris, pH 9.0, 50mM NaCl with 0.01% Tween20 and 1mM DTT added right before the assay) were added into a white low volume 384 well microtiter plate. This mixture solution was incubated for 15 minutes with gentle shaking at room temperature. Demethylation reaction was initiated by adding 2.5 µL of Biotin-H3K4Me peptide substrate solution in the assay buffer. Final concentrations of LSD1, Biotin-H3K4Me peptide substrate, and DMSO were 4 nM, 80 nM, and 1%, respectively. […] Plates were read on a BMG CLARIOStar multimode plate reader from BMG Labtech (Ortenberg, Germany) with an excitation wavelength of 680 nm and emission wavelength of 615 nm. IC50 values of inhibitors were obtained by fitting the fluorescence intensity vs inhibitor concentrations in a sigmoidal dose-response curve (variable slope) with a non-linear regression using Prism 7 (La Jolla, CA). […]

SMILES | IC50 [nM]
CN(C)c1ccc(-c2ncc3c(ccn3CC3CCNCC3)c2-c2ccc(C#N)cc2)cc1 [compound 85, 4-(5-(4-(dimethylamino)phenyl)-1-(piperidin-4-ylmethyl)-1H-pyrrolo[2,3-c]pyridin-4-yl)benzonitrile] | 23.1
